Read-outs that look alike come from different tables or passages of the source.
Tests used:
rats [1] = assay: Loss of righting reflexes (LORR) assay in rats, ED50 by up and down method; type: in vivo, rat; conditions: tail vein, class symbols; for ED50: Rattus norvegicus
How it was run: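 Adult male Sprague-Dawley rats (250-300 g) dosed i.v. via tail vein at 0.1 mL/s. Anesthesia scored as loss of righting reflex lasting >30 s; ED50 derived by up-and-down method.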

rats [2] = system: rats
Description: Adult male Sprague-Dawley rats (250-300 g) were selected for the experiment. […] The anesthesia effects of the compounds were assessed in rats using a LORR assay and a period >30 s was considered as an indicator of general anesthesia. Then the up and down method was used to determine 50% effective dose (ED50). The drugs were administered through the tail vein of rats in a volume of 0.6 mL and at a rate of 0.1 mL/s.

rats [3] = conditions: continuous tail vein infusion at 2×MIR, LORR maintained 1 hour
Description: Pharmacological Effects of the Compounds on Continuous Infusion in Rats
Adult male Sprague-Dawley rats with body weight ranging from 250 to 300 gm were selected for continuous infusion test. […] Time to recovery of righting reflex from stopping infusion, and time to fully awake from stopping infusion were recorded.

rats [4] = type: in vivo, rat; conditions: rats of the MAP/HR figures, 2×ED50, tail vein
rats [5] = assay: Pharmacological characteristics at equivalent doses (2×ED50) in rats; conditions: 2×ED50, tail vein; for Adverse reactions: Red urine (incidence): DMSO solution (DMSO alone 10/10); for Onset time: time of LORR; for Adverse reactions: Tremor (incidence): animals affected/animals
How it was run: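 Adult male Sprague-Dawley rats (250-300 g, n=8) received each drug at twice its ED50 via tail vein (0.6 mL at 0.1 mL/s). Onset of anesthesia taken as time to LORR.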

rats [6] = type: in vivo, rat; conditions: rats of the MAP/HR figures, 2×ED50, tail vein; same value in min
How it was run: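 Rats implanted with telemetry (left ventricular and abdominal aortic catheters, ECG leads) at least one week before recording; compounds given via lateral tail-vein catheter. MAP and HR sampled every 15 s for 30 min before and after dosing to judge hemodynamic stability.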

Row | SMILES | ED50 (rats [1]) [mg/kg] | Approximate therapeutic index (rats [2]) | Minimal lethal dose (rats [2]) [mg/kg] | Onset time (rats [3]; Table D4) [min] | Recovery time after stopping infusion (rats [3]; Table D4) [min] | Types and incidence of adverse reactions (rats [3]; Table D4) | recovery time of the test animals' righting reflex (rats [4]) [s] | Righting reflex duration (rats [5]) [min] | Adverse reactions: Red urine (incidence) (rats [5]) | Onset time (rats [5]) [min] | recovery time of the test animals' righting reflex (rats [6]) [min] | Onset time (rats [3]; Table E4) [min] | Recovery time after stopping infusion (rats [3]; Table E4) [min] | Types and incidence of adverse reactions (rats [3]; Table E4) | Adverse reactions: Tremor (incidence) (rats [5]) | Adverse reactions: Euphoria (incidence) (rats [5]) | ED50 (mg/kg) (rats [1]) | Sedation duration (mg/kg) (rats [5]) | Adverse reactions: Restlessness (incidence) (rats [5])
1 | C#CC1(OC(=O)c2cncn2[C@H](C)c2ccccc2)CCC1 [Compound D1] | 0.1 to 0.5 | >14 | >6 | 3 to 4 | 11 to 14 | Tremor (2/6) | 785 | 4.28 ± 1.78 | Red urine (8/8) | 0.26 ± 0.10 | 13.08 | – | – | – | – | – | – | – | –
2 | C#CC1(OC(=O)c2c(Cl)nc(Cl)n2[C@H](C)c2ccccc2)COC1 [Compound E148] | 0.5 to 1 | >12 | >10 | – | – | – | 58 | 0.49 ± 0.38 | urine (8/8) | 0.75 ± 0.24 | 0.97 | 3 to 4 | 11 to 16 | Myoclonus (2/6), Tremor (3/6) | (5/8), Red | – | – | – | –
3 | C=C=CC(C)OC(=O)c1cncn1[C@H](C)c1ccccc1 (stereo partly shown) [Compound D22] | 0.1 to 0.5 | >11 | >2 | 3 to 4 | 14 to 18 | Euphoria (2/6), Tremor (4/6) | 50 | 4.51 ± 1.63 | urine (8/8) | 0.24 ± 0.07 | 0.83 | – | – | – | – | Euphoria (1/8), Red | – | – | –
4 | CC#CC(C)OC(=O)c1c(Cl)ncn1[C@H](C)c1ccccc1 (stereo partly shown) [Compound E116] | 0.5 to 1 | >16 | >10 | – | – | – | 92 | 1.18 ± 0.56 | (8/8) | 0.61 ± 0.23 | 1.53 | 3 to 4 | 11 to 15 | Tremor (1/6), Tongue stretching (3/6) | – | – | – | – | –
5 | C=C=CC1(SC(=O)c2c(F)ncn2[C@H](C)c2ccccc2)CSC1 [Compound E90] | 0.01 to 0.1 | >30 | >1.5 | – | – | – | 85 | 1.29 ± 0.64 | urine (8/8) | 0.50 ± 0.20 | 1.42 | 2 to 3 | 9 to 12 | Tremor (2/6) | (1/8), Red | – | – | – | –
6 | CCOC(=O)c1c(Cl)ncn1[C@H](C)c1ccccc1 [Compound E100] | – | >30 | >12 | – | – | – | 110 | 1.98 ± 1.85 | urine (8/8) | 0.60 ± 0.24 | 1.83 | 2 to 3 | 9 to 14 | Tremor (3/6) | (5/8), Red | – | B (B means that the measured ED50 is in the range of 0.10-0.50 mg/kg (excluding 0.10 mg/kg, including 0.50 mg/kg).) | 5.82 ± 2.11 | –
7 | C=CC(C)(C)OC(=O)c1c(F)ncn1[C@H](C)c1ccccc1 [Compound E32] | – | >30 | >4 | – | – | – | 219 | 3.86 ± 1.13 | urine (8/8) | 0.30 ± 0.14 | 3.65 | 2 to 3 | 12 to 16 | Tremor (2/6), Tongue stretching (3/6) | (3/8), Red | – | B (B means that the measured ED50 is in the range of 0.10-0.50 mg/kg (excluding 0.10 mg/kg, including 0.50 mg/kg).) | 8.70 ± 2.07 | –
8 | C#CC1(COC(=O)c2cncn2[C@H](C)c2ccccc2)CCC1 [Compound D10] | 0.5 to 1 | >12 | >6 | 3 to 4 | 13 to 17 | Tremor (6/6) | 605 | 6.04 ± 2.27 | (8/8) | 0.14 ± 0.03 | 10.08 | – | – | – | Tremor (2/8), Red urine | – | – | – | –
9 | C#CC1(OC(=O)c2cncn2[C@H](C)c2ccccc2)COC1 [Compound D3] | 0.5 to 1 | >10 | >8 | 2 to 3 | 7 to 9 | Restlessness (2/6), Tremor (3/6) | 76 | 1.05 ± 0.29 | urine (8/8) | 0.19 ± 0.05 | 1.27 | – | – | – | – | – | – | – | Restlessness (4/8), Red
10 | CCOC(=O)c1c(Cl)nc(Cl)n1[C@H](C)c1ccccc1 [Compound E129] | 0.1 to 0.5 | >30 | >9 | – | – | – | 52 | 0.68 ± 0.34 | urine (8/8) | 0.87 ± 0.26 | 0.87 | 3 to 4 | 8 to 13 | No | (3/8), Red | – | – | – | –
11 | C[C@H](c1ccccc1)n1c(Cl)nc(Cl)c1C(=O)OC1CSC1 [Compound E133] | 0.5 to 1 | >12 | >10 | – | – | – | 138 | 2.10 ± 0.86 | urine (8/8) | 0.25 ± 0.10 | 2.30 | 3 to 4 | 9 to 12 | Tremor (4/6) | (4/8), Red | – | – | – | –
12 | C=C=CC1(OC(=O)c2c(F)ncn2[C@H](C)c2ccccc2)CCC1 [Compound E64] | 0.01 to 0.1 | >40 | >1.5 | – | – | – | 149 | 2.28 ± 1.28 | urine (8/8) | 0.31 ± 0.06 | 2.48 | 2 to 3 | 11 to 14 | No | (2/8), Red | – | – | – | –
13 | C#CC(C)(C)OC(=O)c1c(F)ncn1[C@H](C)c1ccccc1 [Compound E25] | 0.1 to 0.5 | >24 | >6 | – | – | – | 134 | 2.10 ± 0.86 | urine (8/8) | 0.25 ± 0.09 | 2.23 | – | – | – | – | – | – | – | (2/8), Red
14 | CC(C)OC(=O)c1c(F)ncn1[C@H](C)c1ccccc1 [Compound E24] | 0.01 to 0.1 | >45 | >4 | – | – | – | 75 | 1.00 ± 0.29 | (8/8) | 0.38 ± 0.14 | 1.25 | – | – | – | – | – | – | – | –
15 | CCCC(C)(C)OC(=O)c1c(F)ncn1[C@H](C)c1ccccc1 [Compound E29] | 0.1 to 0.5 | >15 | >6 | – | – | – | 165 | 2.74 ± 2.63 | (8/8) | 0.48 ± 0.21 | 2.75 | – | – | – | – | – | – | – | –

Reference: patent publication US11434205B2, “Substituted imidazole carboxylate derivatives and the use thereof” (priority 2018, dated 2022)
